# From ChEMBL document CHEMBL1142448, “Design and synthesis of 6-phenylnicotinamide derivatives as antagonists of TRPV1” (Bioorg Med Chem Lett, 2008)
# How the values were obtained:
# [1] = biological target: T1, Transient receptor potential cation channel subfamily V member 1 (Homo sapiens, UniProt Q8NER1); assay: Antagonist activity at human TRPV1 expressed in human 1321N1 cells assessed as inhibition of capsaicin-induced calcium influx by FLIPR assay; type: functional, cell-based
# Cavia porcellus [2] = assay: Antihyperalgesic activity in guinea pig assessed as reversal of FCA-induced inflammatory pain at 5 mg/kg, ip; type: functional; conditions: route intraperitoneal
# Cavia porcellus [3] = organism: Cavia porcellus; assay: Antihyperalgesic activity against FCA-induced inflammatory pain in guinea pig assessed as paw withdrawal after 1 hr; type: functional
# [4] = biological target: T1, Transient receptor potential cation channel subfamily V member 1; assay: Inhibition of human TRPV1 expressed in HEK293 cells assessed as reversible inhibition of heat-activated current at 1 uM by whole cell patch clamp assay relative to control; type: cell-based
# [5] = Oral bioavailability in guinea pig; type: ADME, organism-based, Cavia porcellus; conditions: in vivo
# Liver microsomes = assay: Intrinsic clearance in human liver microsomes; type: ADME, Microsome
# [6] = Intrinsic clearance in guinea pig liver microsomes; type: ADME, Cavia porcellus, Microsome
# [7] = biological target: T1, Transient receptor potential cation channel subfamily V member 1; assay: Antagonist activity at human TRPV1 expressed in HEK293 cells assessed as inhibition of capsaicin-induced calcium influx at 1 uM by whole cell patch clamp assay; type: functional, cell-based
# [8] = biological target: T1, Transient receptor potential cation channel subfamily V member 1; assay: Antagonist activity at human TRPV1 expressed in HEK293 cells assessed as inhibition of capsaicin-induced calcium influx by whole cell patch clamp assay; type: functional, cell-based
# [9] = biological target: T1, Transient receptor potential cation channel subfamily V member 1; assay: Antagonist activity at human TRPV1 expressed in HEK293 cells assessed as inhibition of pH 5.3 acid-induced calcium influx at 100 nM by whole cell patch clamp assay; type: functional, cell-based
# [10] = biological target: T1, Transient receptor potential cation channel subfamily V member 1; assay: Antagonist activity at human TRPV1 expressed in HEK293 cells assessed as inhibition of pH 5.3 acid-induced calcium influx by whole cell patch clamp assay; type: functional, cell-based
# [11] = biological target: T1, Transient receptor potential cation channel subfamily V member 1; assay: Antagonist activity at human TRPV1 expressed in HEK293 cells assessed as inhibition of pH 5.3 acid-induced calcium influx by FLIPR assay; type: functional, cell-based
# [12] = biological target: Transient receptor potential cation channel subfamily V member 1 (Cavia porcellus, UniProt Q6R5A3); assay: Antagonist activity at guinea pig TRPV1 expressed in HEK293 cells assessed as inhibition of pH 5.3 acid-induced calcium influx by FLIPR assay; type: functional, cell-based
# [13] = biological target: Transient receptor potential cation channel subfamily V member 1 (Rattus norvegicus, UniProt O35433); assay: Antagonist activity at rat TRPV1 expressed in HEK293 cells assessed as inhibition of pH 5.3 acid-induced calcium influx by FLIPR assay; type: functional, cell-based
# [14] = biological target: T1, Transient receptor potential cation channel subfamily V member 1; conditions: HEK293
# Description: Antagonist activity at human TRPV1 expressed in HEK293 cells assessed as inhibition of capsaicin-induced calcium influx by FLIPR assay
# [15] = biological target: Transient receptor potential cation channel subfamily V member 1 (Cavia porcellus) (UniProt Q6R5A3); conditions: HEK293
# Description: Antagonist activity at guinea pig TRPV1 expressed in HEK293 cells assessed as inhibition of capsaicin-induced calcium influx by FLIPR assay
# [16] = biological target: Transient receptor potential cation channel subfamily V member 1 (Rattus norvegicus) (UniProt O35433); conditions: HEK293
# Description: Antagonist activity at rat TRPV1 expressed in HEK293 cells assessed as inhibition of capsaicin-induced calcium influx by FLIPR assay
# Cytochrome P450 3A4 = Cytochrome P450 3A4 (Homo sapiens, UniProt P08684); assay: Inhibition of CYP3A4; type: ADME
# Cavia porcellus [17] = assay: Antihyperalgesic activity in guinea pig assessed as reversal of FCA-induced inflammatory pain at 30 mg/kg, sc; type: functional; conditions: route subcutaneous
# [18] = Blood clearance in rat at 1 mg/kg, iv; type: ADME, organism-based; design: dose 1 mg/kg, route intravenous; conditions: whole blood
# [19] = Half life in rat at 1 mg/kg, iv; type: ADME, organism-based; design: dose 1 mg/kg, route intravenous; conditions: in vivo
# T1 sequence (Q8NER1 whole entry): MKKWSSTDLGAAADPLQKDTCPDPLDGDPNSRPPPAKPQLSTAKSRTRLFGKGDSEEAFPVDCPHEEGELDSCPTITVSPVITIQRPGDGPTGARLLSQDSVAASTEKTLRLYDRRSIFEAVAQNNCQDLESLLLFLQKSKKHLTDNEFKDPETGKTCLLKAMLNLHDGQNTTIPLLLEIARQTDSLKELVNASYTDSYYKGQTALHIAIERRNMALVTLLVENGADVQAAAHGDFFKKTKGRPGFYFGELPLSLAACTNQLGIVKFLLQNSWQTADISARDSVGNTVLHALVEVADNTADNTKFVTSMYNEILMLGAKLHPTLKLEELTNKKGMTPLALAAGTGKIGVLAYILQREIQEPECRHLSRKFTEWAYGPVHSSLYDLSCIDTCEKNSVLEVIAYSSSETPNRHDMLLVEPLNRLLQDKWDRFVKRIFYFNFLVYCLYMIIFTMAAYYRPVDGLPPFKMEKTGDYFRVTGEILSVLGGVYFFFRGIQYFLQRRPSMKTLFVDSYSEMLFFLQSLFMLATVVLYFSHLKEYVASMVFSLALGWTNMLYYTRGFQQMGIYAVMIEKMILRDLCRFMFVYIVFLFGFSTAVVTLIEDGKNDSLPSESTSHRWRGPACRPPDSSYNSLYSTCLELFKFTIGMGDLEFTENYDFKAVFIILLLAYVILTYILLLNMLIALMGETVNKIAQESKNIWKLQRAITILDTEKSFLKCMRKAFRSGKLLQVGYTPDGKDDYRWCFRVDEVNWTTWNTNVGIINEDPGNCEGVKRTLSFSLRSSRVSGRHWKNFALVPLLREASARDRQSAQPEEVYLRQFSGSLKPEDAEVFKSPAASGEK
# Chain of Transient receptor potential cation channel subfamily V member 1 (Rattus norvegicus) (O35433 whole entry): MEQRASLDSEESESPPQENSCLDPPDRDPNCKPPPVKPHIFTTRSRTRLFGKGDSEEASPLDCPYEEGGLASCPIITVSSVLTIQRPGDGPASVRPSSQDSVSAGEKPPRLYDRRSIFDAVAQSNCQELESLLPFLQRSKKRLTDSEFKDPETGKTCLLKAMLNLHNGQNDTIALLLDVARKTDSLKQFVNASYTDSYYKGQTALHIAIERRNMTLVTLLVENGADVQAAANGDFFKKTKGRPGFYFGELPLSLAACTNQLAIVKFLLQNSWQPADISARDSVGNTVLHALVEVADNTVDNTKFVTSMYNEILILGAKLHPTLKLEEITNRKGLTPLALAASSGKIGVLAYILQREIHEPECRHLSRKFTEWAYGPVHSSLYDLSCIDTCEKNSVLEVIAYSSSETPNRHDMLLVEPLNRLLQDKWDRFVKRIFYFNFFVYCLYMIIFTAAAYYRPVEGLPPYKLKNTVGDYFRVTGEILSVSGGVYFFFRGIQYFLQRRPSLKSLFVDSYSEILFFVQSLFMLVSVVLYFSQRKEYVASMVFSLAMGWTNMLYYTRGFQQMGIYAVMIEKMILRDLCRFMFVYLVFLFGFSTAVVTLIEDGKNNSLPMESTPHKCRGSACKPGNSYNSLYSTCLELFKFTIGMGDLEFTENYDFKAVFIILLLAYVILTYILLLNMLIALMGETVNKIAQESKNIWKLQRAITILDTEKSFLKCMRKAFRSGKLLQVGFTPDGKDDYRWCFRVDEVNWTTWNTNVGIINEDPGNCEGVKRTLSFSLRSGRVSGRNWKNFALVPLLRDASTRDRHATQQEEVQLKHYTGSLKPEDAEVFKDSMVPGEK
# Chain of Transient receptor potential cation channel subfamily V member 1 (Rattus norvegicus, UniProt O35433) (O35433 whole entry): as above
# Chain of Transient receptor potential cation channel subfamily V member 1 (Cavia porcellus, UniProt Q6R5A3) (Q6R5A3 whole entry): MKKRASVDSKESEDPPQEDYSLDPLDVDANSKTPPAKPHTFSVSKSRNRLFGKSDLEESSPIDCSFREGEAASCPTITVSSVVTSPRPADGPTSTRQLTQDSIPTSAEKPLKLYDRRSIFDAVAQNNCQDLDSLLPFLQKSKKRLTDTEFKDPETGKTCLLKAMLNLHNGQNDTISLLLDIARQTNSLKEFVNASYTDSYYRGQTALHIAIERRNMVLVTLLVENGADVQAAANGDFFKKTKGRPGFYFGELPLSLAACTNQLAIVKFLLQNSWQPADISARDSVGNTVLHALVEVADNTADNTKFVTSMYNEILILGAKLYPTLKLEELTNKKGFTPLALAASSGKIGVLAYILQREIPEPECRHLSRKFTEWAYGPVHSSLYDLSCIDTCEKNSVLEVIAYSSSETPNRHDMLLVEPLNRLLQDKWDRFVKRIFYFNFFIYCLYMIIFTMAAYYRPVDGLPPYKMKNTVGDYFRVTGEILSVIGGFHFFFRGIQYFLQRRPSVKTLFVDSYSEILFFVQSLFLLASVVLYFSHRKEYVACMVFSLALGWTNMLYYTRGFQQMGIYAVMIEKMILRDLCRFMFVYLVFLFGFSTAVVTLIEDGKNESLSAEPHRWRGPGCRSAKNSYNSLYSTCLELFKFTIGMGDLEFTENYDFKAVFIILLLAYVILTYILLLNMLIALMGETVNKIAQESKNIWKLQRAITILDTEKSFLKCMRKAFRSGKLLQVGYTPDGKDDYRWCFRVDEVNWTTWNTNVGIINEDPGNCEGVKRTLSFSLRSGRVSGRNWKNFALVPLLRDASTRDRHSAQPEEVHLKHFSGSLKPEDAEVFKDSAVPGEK
# Chain of Transient receptor potential cation channel subfamily V member 1 (Cavia porcellus) (Q6R5A3 whole entry): as above
# Chain of Cytochrome P450 3A4 (P08684 whole entry): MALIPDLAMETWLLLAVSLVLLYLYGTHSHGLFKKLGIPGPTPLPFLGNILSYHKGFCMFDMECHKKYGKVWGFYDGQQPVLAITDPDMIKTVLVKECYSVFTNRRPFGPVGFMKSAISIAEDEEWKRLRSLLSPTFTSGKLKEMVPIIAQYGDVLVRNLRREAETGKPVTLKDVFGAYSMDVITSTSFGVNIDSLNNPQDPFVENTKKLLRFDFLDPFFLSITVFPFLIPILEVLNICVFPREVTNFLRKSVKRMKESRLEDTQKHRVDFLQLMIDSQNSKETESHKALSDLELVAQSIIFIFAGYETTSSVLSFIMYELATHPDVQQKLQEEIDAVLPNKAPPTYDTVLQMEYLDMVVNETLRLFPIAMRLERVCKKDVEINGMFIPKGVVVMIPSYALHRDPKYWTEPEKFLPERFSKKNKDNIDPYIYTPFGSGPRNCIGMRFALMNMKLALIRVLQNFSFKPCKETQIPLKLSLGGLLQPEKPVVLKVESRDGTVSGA
smiles,measurement,setting,value
Cc1nc(-c2ccc(F)cc2)ccc1C(=O)Nc1ccc2ccn(C)c2c1,pKb,[1],< 6.5
Cc1nc(-c2ccc(F)cc2)ccc1C(=O)Nc1ccc2sc(N(C)C)nc2c1,pKb,[1],< 5.8
Cc1nc(-c2ccc(F)cc2)ccc1C(=O)Nc1ccc2scnc2c1,pKb,[1],7.5
Cc1nc(-c2ccc(F)cc2)ccc1C(=O)Nc1ccc2c(C)n[nH]c2c1,pKb,[1],6.9
Cc1nc(-c2ccc(F)cc2)ccc1C(=O)Nc1ccc2ncn(C)c2c1,pKb,[1],6.7
O=C(Nc1ccc2cccnc2c1)c1ccc(Cl)nc1,pKb,[1],< 6.7
Cc1nc2cc(NC(=O)c3ccc(-c4ccc(F)cc4)nc3C)ccc2s1,Activity,Cavia porcellus [2],48%
same,Activity,Cavia porcellus [3],68%
same,ED50,"Cavia porcellus [3]; Cavia porcellus, 1 h",0.53 mg/kg
same,inhibition,[4],87%
same,bioavailability,[5],24%
same,CL,Liver microsomes,2.2 mL/min/g
same,CL,[6],2.7 mL/min/g
same,pKb,[1],7.4
same,inhibition,[7],100%
same,IC50,[8],49 nM
same,inhibition,[9],96%
same,IC50,[10],9 nM
same,IC50,[11],39.8 nM
same,IC50,[12],63.1 nM
same,IC50,[13],100 nM
same,pKb,[14],7.2
same,pKb,[15],7.4
same,pKb,[16],7
Cc1cc(-c2ccccc2)ncc1C(=O)Nc1ccc2cccnc2c1,pKb,[1],6.7
O=C(Nc1ccc2cccnc2c1)c1ccc(-c2ccccc2F)nc1,pKb,[1],8.7
Cc1nc(-c2ccc(F)cc2)ccc1C(=O)Nc1ccc2cccnc2c1,Activity,Cavia porcellus [2],42%
same,IC50,Cytochrome P450 3A4,< 10000 nM
same,pKb,[1],8.5
Cc1nc2ccc(NC(=O)c3ccc(-c4ccc(F)cc4)nc3C)cc2o1,pKb,[1],< 6.7
Cc1nc(-c2ccc(F)cc2)ccc1C(=O)Nc1ccc2sc(CN(C)C)nc2c1,pKb,[1],< 6.7
O=C(Nc1ccc2cccnc2c1)c1ccc(-c2ccc(C(F)(F)F)cc2)nc1,pKb,[1],7.3
Cc1nc2ccc(NC(=O)c3ccc(-c4ccc(F)cc4)nc3C)cc2[nH]1,pKb,[1],6
O=C(Nc1ccc2cccnc2c1)c1ccc(-c2ccc(Cl)cc2)nc1,pKb,[1],7.8
O=C(Nc1ccc2cccnc2c1)c1ccc(-c2ccc(F)cc2)nc1,CL,Liver microsomes,1.7 mL/min/g
same,CL,[6],42 mL/min/g
same,pKb,[1],8.2
O=C(Nc1ccc2cccnc2c1)c1ccc(-c2ccccc2)nc1,Activity,Cavia porcellus [17],32%
same,CL,Liver microsomes,3.1 mL/min/g
same,CL,[6],3.9 mL/min/g
same,clearance,[18],33 mL/min/kg
same,half-life,[19],21.6 min
Cc1nc(-c2ccc(F)cc2)ccc1C(=O)Nc1ccc2cn[nH]c2c1,pKb,[1],7.5
O=C(Nc1ccc2cccnc2c1)c1ccc(-c2cccc(F)c2)nc1,pKb,[1],8.6
N#Cc1ccc(C(=O)Nc2ccc3cccnc3c2)cn1,pKb,[1],< 6.7
Cc1nc(-c2ccc(F)cc2)ccc1C(=O)Nc1ccc2nc[nH]c2c1,pKb,[1],7.2
Cc1nc(-c2ccc(F)cc2)ccc1C(=O)Nc1ccc2ncsc2c1,pKb,[1],6.7
Cc1nc(-c2ccccc2)ccc1C(=O)Nc1ccc2cccnc2c1,pKb,[1],9
N#Cc1ccc(-c2ccc(C(=O)Nc3ccc4cccnc4c3)cn2)cc1,pKb,[1],< 6.6
